This is an account of results in patent US8669246B2, “Substituted amide compound” (Astellas Pharma Inc., priority 2009, dated 2014).

Data set [1] relates to LPA-induced increase in urethral pressure. Kind of data set: Inhibitory action on LPA-induced increase in urethral pressure in rats under anesthesia. Format: in vivo, rat (male Wistar). The following applies: Rattus norvegicus, 5 min; 0.1 mg/kg intravenous, LPA (1-oleoyl) 3 mg/kg iv after 5 minutes, anesthetized rats, vs solvent; read-out: Inhibitory rate. As to the method:
Inhibitory Action of Compound of Formula (I) on LPA-Induced Increase in Urethral Pressure in Rats Under Anesthesia (with Intravenous Administration at 0.1 mg/kg) Male Wistar rats (Charles River, 9- to 12-week old) were anesthetized with urethane (1.2 g/kg ip), and held in the supine position on an operating table kept at 37° C. The lower abdominal portion was midline-incised and the bladder was thus exposed. A small portion of the bladder apex was incised, a microchip pressure transducer (Millar) was inserted antegrade, and then placed in the urethra, and the urethral pressure was recorded continuously. In addition, a cannula for administration of a drug was placed into the femoral vein. After about 1 hour of stabilization, the compound of formula (I) (0.1 mg/kg) was administered intravenously. After 5 minutes, LPA (1-oleoyl) was administered intravenously at 3 mg/kg, and the changes in the urethral pressure were recorded. The inhibitory rates (%) of the compound of the formula (I) on the LPA-stimulated increase in the urethral pressure compared with those after administration of the solvent of the compound of the formula (I) were recorded.

Data set [2] can be described thus: Estimation of concentration in plasma after oral administration in rats using ex vivo bioassay method. As to conditions: male, Wistar, rat, 2 hours after oral administration, estimated by ex vivo bioassay from standard curve. As to the method:
Estimation of Concentration in Plasma (2 Hours after Oral Administration) after Administration of Compound of Formula (I) in Rats Using Ex Vivo Bioassay Method
The concentration in the plasma after administration of the compound of the formula (I) in rats was estimated according to a bioassay method. That is, test compounds were orally administered to male Wistar rats (Charles River, 6-week old, and fasted), and after a certain period of time, blood was collected from the ophthalmic basilar plexus to give plasma. The compound was extracted from the plasma, and the extracted compound was dissolved in a certain amount of DMSO. Further, for the standard curve, the plasma in which the compounds at various concentrations had been dissolved was prepared separately, and the same extraction procedure was conducted.
The inhibitory action on the LPA-stimulated increase in the intracellular calcium ion concentration in LPA1-expressing cells in the DMSO extract was measured, and the plasma concentration in the individual after administration was estimated from the standard curve.

The target in a further data set is T1, human LPA1 (Homo sapiens, UniProt Q92633).
T1 construct: expressed in transfected cells
T1 sequence (Q92633 whole entry): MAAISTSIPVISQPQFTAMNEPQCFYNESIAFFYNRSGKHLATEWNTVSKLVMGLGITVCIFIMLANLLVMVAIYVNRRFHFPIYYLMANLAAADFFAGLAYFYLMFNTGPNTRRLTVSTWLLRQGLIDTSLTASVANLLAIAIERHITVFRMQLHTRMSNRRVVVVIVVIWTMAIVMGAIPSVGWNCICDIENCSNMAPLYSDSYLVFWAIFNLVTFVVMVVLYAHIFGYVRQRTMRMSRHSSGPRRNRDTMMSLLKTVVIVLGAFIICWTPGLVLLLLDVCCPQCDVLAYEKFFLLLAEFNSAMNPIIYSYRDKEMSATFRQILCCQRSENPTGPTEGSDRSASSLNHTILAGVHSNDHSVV
Kind of data set: Antagonistic action on human LPA1: inhibition of LPA-stimulated increase in intracellular calcium ion concentration in human LPA1-CHO cells. The class given is cell-based. The following applies: LPA 100 nM, Fluo-4/FLIPR calcium signal. How it is done: Antagonistic Action of Compound of Formula (I) on Human LPA1
The antagonistic action on a human LPA 1 was evaluated with an index of an inhibitory action on the LPA-stimulated increase in intracellular calcium ion concentration, using human LPA 1-CHO cells [cells in which human LPA1 receptors are stably expressed in CHO (dhfr gene-deficient) cell lines].
Establishment of human LPA1-CHO cells was performed based on the basic genetic engineering techniques.
The established cells were maintained by passage in a nucleic acid-free α-MEM medium (Invitrogen) containing 10% FBS, 1% penicillin/streptomycin (Invitrogen), and 100 nM methotrexate, and before experiment, the medium was replaced with a medium that had been reduced to 1% of the […] concentration, then seeded in 96-well plates to 1.5×10e^5 cells/100 μL/well, and incubated overnight.
On the day of experiment, a 0.5 μM Fluo-4 solution [a solution prepared by adding 20 mM HEPES (Sigma), […] probenecid (Nacalai Tesque), 0.05% BSA, 0.5 μM Fluo-4 AM (Dojindo Laboratories), and 0.1% Pluronic […] (Molecular Probe Co.) to a Hanks Balanced Solt Solution (Invitrogen)] was added to the cells, and Fluo-4 was loaded on the cells by incubating for 2 hours at room temperature.
After loading Fluo-4, the Fluo-4 solution was replaced with a reaction solution [a solution obtained by adding 20 mM HEPES, […] probenecid, and 0.05% BSA to a Hanks Balanced Solt Solution], and then measurement was performed using a device for measuring an intracellular calcium concentration (FLIPR tetra, Molecular Devices Inc.).
A reaction solution in which the compound of the formula (I) (with a final concentration of 0.1 nM to 10 μM) had been dissolved was added to each of the wells, the signals were measured over time for 4 minutes, then a reaction solution in which LPA (final concentration 100 nM) had been dissolved was added thereto, and the signals were measured over time for 2 minutes. The difference between the maximum and minimum response during one minute from addition of LPA was calculated. The inhibitory activity was calculated, with a response when LPA only (not including the compound) was added was taken as 0% inhibition, and a response when a reaction solution not including both of the compound and LPA was added was taken as 100% inhibition. Then the 50% inhibitory concentration was calculated as an IC50 value (nM).
Human LPA1-CHO cells used in the present test were the cells with the same sequence as described in the pamphlet of International Publication WO 99/19513 were used. Further, Ex represents Example No. as denoted below.
(In general: Calcium flux is commonly read through the fluorescence of an indicator in the cells.)

Each structure is given as a SMILES string.

`COc1cc(C(=O)N(CCCc2ccccc2)Cc2nc(C(=O)N(C)S(N)(=O)=O)cs2)cc(OC)c1C` [Example 9, N-(aminosulfonyl)-2-{[(3,5-dimethoxy-4-methylbenzoyl)(3-phenylpropyl)amino]methyl}-N-methyl-1,3-thiazole-4-carboxamide]: in data set [1], the inhibition in vivo at 0.1 mg/kg was determined as 28%. Moreover, in data set [2], the concentration at 2 h is 8.3 µM.

The term IC50 denotes the midpoint of a concentration-inhibition curve. Take `COc1cc(C(=O)N(CCCc2ccccc2)Cc2nc(C(=O)NS(=O)(=O)N(CCO)CCF)cs2)cc(OC)c1C` [Example 22, 2-{[(3,5-dimethoxy-4-methylbenzoyl)(3-phenylpropyl)amino]methyl}-N-{[(2-fluoroethyl)(2-hydroxyethyl)amino]sulfonyl}-1,3-thiazole-4-carboxamide]: on human LPA1, the IC50 is 0.024 µM. The concentration at 2 h in data set [2] is 1.3 µM.

`COc1ccc(C(O)C(=O)N(CCCc2ccccc2)Cc2nc(C(=O)NS(=O)(=O)N(C)C)c(C)s2)c(F)c1` (centres unmarked) [Example 27]: the IC50 at human LPA1 was 0.014 µM. In data set [2], the concentration at 2 h is 6.5 µM.

`COc1ccc(C2(C(=O)N(CCCc3ccccc3)Cc3nc(C(=O)NS(=O)(=O)N(C)C)c(C)s3)CC2)cc1` [Example 56]: the IC50 at human LPA1 came out at 0.029 µM. In data set [2], the concentration at 2 h was 1.8 µM.

As a reminder, the melting point is the temperature, or range, at which the solid turns liquid. With `COC(=O)N(C)S(=O)(=O)NC(=O)c1csc(CN(CCCc2ccccc2)C(=O)c2cc(OC)c(C)c(OC)c2)n1` [Example 89], the melting point lay in the range of 135 to 137 °C. Also, the IC50 on human LPA1 is 0.017 µM. For the same compound, in data set [2], the concentration at 2 h was 2.4 µM.

For the compound `COc1cc(C(=O)N(CCCc2ccccc2)Cc2nc(C(=O)NS(=O)(=O)N(C)CCF)c(C)s2)cc(OC)c1C` [Example 100], in data set [2], the concentration at 2 h is 6.7 µM.

Take `COc1ccc(CC(=O)N(CCCc2ccccc2)Cc2nc(C(=O)NS(=O)(=O)N(C)C)c(C)s2)c(OC)c1` [Example 126]: the melting point fell in the range of 132 to 135 °C. In addition, on human LPA1, the IC50 was found to be 0.02 µM. Further, the concentration at 2 h in data set [2] is 8.9 µM.

Regarding `CONS(=O)(=O)NC(=O)c1nc(CN(CCCc2ccccc2)C(=O)c2cc(OC)cc(OC)c2)sc1C` [Example 134], the IC50 at human LPA1 turned out to be 0.025 µM. For the same compound, in data set [2], the concentration at 2 h is 1.4 µM.

With `CNS(=O)(=O)NC(=O)c1nc(CN(CCCc2ccccc2)C(=O)c2cc(OC)c(C3CC3)c(OC)c2)sc1C` [Example 156], on human LPA1, the 50% inhibitory concentration (IC50) was 0.015 µM. Moreover, the concentration at 2 h in data set [2] is 2.1 µM.

As to `CCN(CCO)S(=O)(=O)NC(=O)c1csc(CN(CCCc2ccccc2)C(=O)c2cc(OC)c(C)c(OC)c2)n1` [Example 170], the melting point lay within 127 to 129 °C. Also, the IC50 at human LPA1 is 0.034 µM. In data set [2], the concentration at 2 h was 1.8 µM.

As to `COc1cc(C(=O)N(CCCc2ccccc2)Cc2nc(C(=O)NS(=O)(=O)N(CCO)CCO)c(C)s2)cc(OC)c1C` [Example 171], in data set [2], the concentration at 2 h is 2.2 µM.

The compound `COc1ccc(C(O)C(=O)N(CCCc2ccccc2)Cc2nc(C(=O)NS(N)(=O)=O)c(C)s2)cc1` (centres unmarked) [Example 176] yielded a melting point of 120 to 121 °C. The IC50 on human LPA1 is 0.024 µM. Besides, the concentration at 2 h in data set [2] is 4.5 µM.

`COc1ccc(C2(C(=O)N(CCCc3cccc(F)c3)Cc3nc(C(=O)NS(=O)(=O)N(C)C)c(C)s3)CC2)nc1` [Example 208] came in with a melting point of 114 to 115 °C. In data set [1], the inhibition in vivo at 0.1 mg/kg came out at 14%. At human LPA1, the IC50 is 0.04 µM.

Take `CCS(=O)(=O)NC(=O)c1nc(CN(CCCc2ccccc2)C(=O)[C@H](O)c2ccc(OC)cc2)sc1C` [Example 266]: the melting point is 123 to 125 °C. The inhibition in vivo at 0.1 mg/kg in data set [1] is 15%. In addition, the IC50 at human LPA1 amounted to 0.065 µM.

On to `COc1ccc([C@@H](O)C(=O)N(CCCc2ccccc2)Cc2nc(C(=O)NS(C)(=O)=O)c(C)s2)c(F)c1` [Example 277], for which the melting point lay in the range of 121 to 123 °C. The inhibition in vivo at 0.1 mg/kg in data set [1] was 42%. At human LPA1, the IC50 is 0.012 µM.
